Measured values from patent US9808456B2, “Piperazine thiazole derivatives useful in the treatment of tauopathies such as Alzheimer's disease” (REMYND NV, priority 2011, dated 2017).

Columns and labels:
[1] = Microsomal stability assay, human liver microsomes (intrinsic clearance); format: in vitro ADME; conditions: read-out: CLint. (Hum)
Description: (§1) Microsomal Stability Testing—Assay Description
(§2) The microsomal stability assay measures the rate of disappearance of a test compound from an incubation containing human or animal liver microsomes and metabolic cofactors (typically NADPH). The assay is primarily used for ranking the relative CYP-mediated metabolism propensities of compounds within a chemical series and as a guide to selecting sufficiently stable compounds for pharmacokinetics and pharmacodynamics experiments. [In addition to CYPs, microsomally located enzymes which also make use of NADPH (such as […]) and those which require no cofactors (such as carboxylesterases) are active.]
(§3) Incubations are performed in 96-well deep-well plates with a final incubation volume of 600 μL. Incubations contain (finally) 1-20 μM test compound, 0.5 mg/mL liver microsomes (typically human, rat or mouse) and NADPH regenerating system. 50 μL aliquots are removed after 1, 3, 6, 9, 15, 25, 35 and 45 minutes and quenched in 150 μL acetonitrile containing internal standard. Samples are then cooled and centrifuged before analysis by LC-MS/MS.
(§4) Log peak area ratio (test compound peak area/internal standard peak area) is plotted against incubation time and a linear fit made to the data with emphasis upon the initial rate of compound disappearance. […]

[2] = Microsomal stability assay, rat liver microsomes (intrinsic clearance); format: in vitro ADME
Description: as §1, §2, §3, §4

[3] = Lipophilicity (logD) by Carrier mediated distribution system (CAMDIS); format: physicochemical
Description: Lipophilicity data were measured with the Carrier mediated distribution system (CAMDIS) as described in EP1705474A1.

M17_3TAU(P301L) cells = experiment: Neuroblastoma tauopathy model: inhibition of TAU-induced cytotoxicity (LDH) after retinoic acid differentiation; format: cell-based; conditions: Homo sapiens, 168 h, inhibition of TAU-induced toxicity, 7 days retinoic acid, LDH readout
From the text: A TAU expression plasmid was constructed by sub-cloning the cDNA encoding for human TAU-P301L protein, wherein proline at position 301 is substituted by a leucine residue, into mammalian expression vector pcDNA3.1 resulting in the plasmid pcDNA3.1-TAUP301L. Plasmids pcDNA3.1 and pcDNA3.1-TAU P301L were transfected into human neuroblastoma cells (BE-M17; ATCC No. CRL2267™) using lipofectamine reagent and subsequently, independent clonal cell lines with the plasmids stably integrated into the genome were selected by antibiotic resistance selection (Geneticin (G418)), resulting in cell lines M17.pcDNA3 and M17_3TAUP301L. Expression of the TAUP301L gene in the M17_3TAUP301L cells was confirmed by Western blot analysis.
Differentiation of the cells with RA leads to phosphorylation and subsequent aggregation of TAU, inducing a tauopathy in these cells. Cytotoxicity of cells was measured by quantification of lactate dehydrogenase (LDH) levels. In dead cells LDH is leaked out of the cells into the medium due to a loss of plasma-membrane integrity.
Briefly, 3 days preceeding the experiment pre-cultures of M17.pcDNA3 and M17_3TAU(P301L) cells were prepared, starting from a stock culture, at a density of 50.000-100.000 cells/cm2 in detection medium (Optimem Reduced Serum without phenol red (Gibco, Cat. 31985-047) supplemented with 1% fetal calf serum (FCS), 1 mM sodium pyruvate, 1× non-essential amino acids (NEAR), 500 μg/ml G418 and 0.5× antibiotic/antimycotic (ABAM)). At the day of the experiment these precultures were diluted to ˜0, 1.106 cells/ml in detection medium without FCS and 60 μL of this suspension is dispensed per well into a 96-well microtiter plate. After 3 hours of incubation at 37° C./5% CO2 an equal volume of detection medium containing 2.5 μM RA was added and subsequently incubated for 7 days at 37° C./5% CO2. After 7 days, LDH activity was determined using the Promega Cytotox 96 Non-Radioactive cytotoxicity assay (Cat. G1780), according the manufacturer's instructions. Cytotoxicity is measured as the ratio of LDH increase in the supernatant divided by the LDH increase in the total cell suspension (sum of the LDH measured in cells and supernatant).
The M17_3TAU(P301L) cell line makes it possible to assess the ability of novel compounds to inhibit TAU-induced cytotoxicity. […] Compounds were tested for their ability to hamper TAU-induced toxicity at different concentrations, ranging from low non-effective concentrations to high potent concentrations. Afterwards, the dose-dependent inhibition curve was used to calculate their EC50 (Table III).

## Clc1ccc(CCN2CCN(c3nc(Cc4ccc(Cl)cc4)ns3)CC2)cc1 [reference compound]
[1]
  microsomal CLint: 43 µL/min/mg
[2]
  microsomal CLint: 48 µL/min/mg

## FC1(F)CCN(c2nsc(N3CCN(CCc4ccc(Cl)cc4)CC3)n2)CC1 [Example 2, 1-[2-(4-Chloro-phenyl)-ethyl]-4-[3-(4,4-difluoro-piperidin-1-yl)-[1,2,4]thiadiazol-5-yl]-piperazine]
[1]
  microsomal CLint: 17 µL/min/mg
[2]
  microsomal CLint: 80 µL/min/mg
[3]
  logD: 2.93
M17_3TAU(P301L) cells
  EC50: 0.0536 µM
